test: Solubility of compatibilizing monomer in water at 25° C.; format: physicochemical

Compound	solubility [µg/mL]
C=C(C)C(=O)OCC(O)CC(F)(F)C(F)(F)C(F)(F)C(F)(F)F (stereo not shown) [C4F9CH2CH(OH)CHMA]	< 10000
C=C(C)C(=O)OCC(O)COCC(CC)CCCC (stereo not shown) [EH(OH)MA]	< 10000
C=C(C)C(=O)OCC(O)COC(=O)C12CC3CC(CC(C3)C1)C2 (stereo not shown) [AdaCO(OH)MA]	< 10000
C=C(C)C(=O)OCC(O)COC(=O)C1CCCCC1 (stereo not shown) [CyCO(OH)MA]	< 10000
C=C(C)C(=O)OC12CC3CC(O)(CC(O)(C3)C1)C2 [DHADM]	< 10000

Results, then the molecule that gave them:

solubility [µg/mL]	Compound
< 10000	C=C(C)C(=O)OCC(O)COC(=O)C(C)(C)C (stereo not shown) [tBuCO(OH)MA]
< 10000	C=C(C)C(=O)OCC(O)COC(C)C (stereo not shown) [iPr(OH)MA]
< 10000	C=C(C)C(=O)OCC(O)COC(C)(C)C (stereo not shown) [tBu(OH)MA]
< 10000	C=CC(=O)OC12CC3CC(CC(O)(C3)C1)C2 [HADA]
< 10000	C=C(C)C(=O)OCC(O)COC(=O)C(O)CCCCCC (stereo not shown) [MA(OH)OCO(OH)Hp]
